{
  "source": "patent US20090270401A1",
  "about": "“USE OF A DIHYDROIMIDAZOPYRAZOINE DERIVATIVE FOR TREATING OR PREVENTING PAIN” (Societe de Conseils de Recherches et D'Applications …, priority 2004, published 2009)",
  "format_in_all_cases": "in vivo",
  "key": {"[1]": {"tested_on": "neuropathy induced by administration of an anti-cancer agent (paclitaxel (taxol)), on a rat's paw", "assay": "Model of neuropathy induced by administration of an anti-cancer agent (paclitaxel), Randall-Selitto test", "settings": "significantly increased", "protocol": "The activity of compound (I) or its salt according to the invention was evaluated in vivo on a model of neuropathy induced by administration of an anti-cancer agent (paclitaxel (taxol)), on a rat's paw.\nMale Sprague Dawley (Charles River) rats weighing approximately 200 g are housed for 6 days under animal room conditions. 3 groups are constituted by at least 10 animals.\nThe neuropathy is induced by intra-peritoneal injections (i.p.) of 2 mg/kg of paclitaxel (extract of Taxus Yannanensis) on days D0, D2, D4 and D7.\nBefore the first injection, the rats are numbered and weighed and nociception is evaluated after a mechanical stimulus of increasing pressure: induction of an initial pressure (210 g/m^2) on the rats' two rear paws carried out using an analgesy meter according to the Randall and Selitto method. These measurements allow the base values to be defined before development of the neuropathy (D0). […]\nOn the day of the experiment, the rats are weighed, nociception is measured and the animals which have not developed the neuropathy on this day (reduction of nociception in comparison with the readings on D0) are excluded from the study. The product being tested is administered and nociception is measured at different times after its administration."}, "[2]": {"tested_on": "carrageenin-induced inflammatory hyperalgesia in a rat's paw", "assay": "Model of carrageenin-induced inflammatory hyperalgesia (Randall-Selitto test)", "protocol": "The activity of compound (I) or its salt according to the invention has been evaluated in vivo on a model of carrageenin-induced inflammatory hyperalgesia in a rat's paw.\nMale Sprague Dawley (Charles River) rats weighing approximately 200 g are housed for 5 to 8 days under animal room conditions and fasted on grids for 18 hours before and during the experiment. 4 groups are constituted by at least 6 animals. The products are administered by intravenous route (i.v., 1 ml/kg) 2 hours 30 minutes after the injection of carrageenin. Carrageenin at a concentration of 2 mg/0.1 ml was injected by sub-plantar route in the right rear paw of the rats (0.1 ml was injected per animal). The pain threshold (or nociceptive threshold) was evaluated by measuring the withdrawal of the rat's paw caused by a mechanical stimulus of increasing pressure (initial pressure 210 g/mm^2) applied using an analgesy meter (Randall-Selitto test). The measurements were taken just before the injection of carrageenin (t=−2 hours 30 minutes) and then at time 0.5 hours, 2 hours 30 minutes and 4 hours after injection of the products to be tested, which was carried out at t=0.\n(§1) This effectiveness is statistically determined by a variance analysis test (one route) and/or a Dunnett's test (two routes).\nThe effective dose (ED50) was determined. By ED50, is meant the dose which reduces by half the pain induced in the model tested."}, "[3]": {"tested_on": "neuropathy induced by chronic constriction injury on the rat's paw", "assay": "Model of neuropathy induced by sciatic nerve lesion (chronic constriction injury), Randall-Selitto test", "protocol": "The activity of compound (I) or its salt according to the invention was evaluated in vivo on a model of neuropathy induced by chronic constriction injury on the rat's paw.\nMale Sprague Dawley (Charles River) rats weighing approximately 200 g are housed for 6 days under animal room conditions. Before the start of the experiment (day zero) the pain threshold (or nociceptive threshold) was evaluated by measuring the withdrawal of the rat's paw caused by a mechanical stimulus (initial pressure 210 g/mm^2) applied using an analgesy meter (Randall-Selitto test). This threshold is the pain base threshold. Then, also on day zero, the rats are rendered neuropathic by chronic constriction injury according to the Bennett and Xies (1988) method: 4 ligatures spaced at approximately 2 mm (monocryl suture; 5.0) are carried out on the sciatic nerve of the rat's right paw, above the trifurcation. This operation is carried out under general anaesthetic using isoflurane. […] On day 14 after the operation, the pain threshold was re-evaluated. […] The readings are taken at the following times: 0.5 hours 2.5 hours and 4 hours after injection of compound (I). […]\nas §1\nThe effective dose (ED50) was determined. […]"}, "[4]": {"settings": "Rattus norvegicus, iv, at time 0.5 hours, read-out: ED50 (dose which reduces by half the pain induced)"}},
  "data": [
    {"smiles": "N[C@@H](CSSC[C@H](N)C(=O)N1CCn2cc(-c3ccccc3)nc2[C@@H]1CC1CCCCC1)C(=O)N1CCn2cc(-c3ccccc3)nc2[C@@H]1CC1CCCCC1", "note": "[Compound (I), (1R)-1-[({(2R)-2-amino-3-[(8S)-8-(cyclohexylmethyl)-2-phenyl-5,6-dihydroimidazo[1,2-a]pyrazin-7(8H)-yl]-3-oxopropyl}dithio)methyl]-2-[(8S)-8-(cyclohexylmethyl)-2-phenyl-5,6-dihydroimidazo[1,2-a]pyrazin-7(8H)-yl]-2-oxoethylamine]", "values": [
      {"measurement": "pain threshold following a mechanical stimulus applied on the rats' paws", "setting": "[1]; 3 mg/kg i.v., time 0.5 hours, paclitaxel alone 250 g/mm^2", "result": "approximately 370 g/mm^2"},
      {"measurement": "pain threshold following a mechanical stimulus applied to the rats' paws", "setting": "[1]; 100 mg/kg p.o., time 1 hour, paclitaxel alone 240 g/mm^2", "result": "approximately 400 g/mm^2"},
      {"measurement": "pain threshold following a mechanical stimulus applied to the rats' paws", "setting": "[2]; 1 mg/kg i.v., time 0.5 hours, control 240 g/mm^2, significantly increased", "result": "approximately 400 g/mm^2"},
      {"measurement": "ED50", "setting": "[2]; [4]", "result": 0.42, "unit": "mg/kg"},
      {"measurement": "pain threshold following a mechanical stimulus applied to the rats' paws", "setting": "[3]; 3 mg/kg i.v., time 0.5 hours, day 14 after operation, control 200 g/mm^2, significantly increased", "result": "approximately 320 g/mm^2"},
      {"measurement": "ED50", "setting": "[3]; [4]", "result": 2.5, "unit": "mg/kg"}
    ]}
  ]
}
